Measurements as given in patent US20120100990A1, “4 -AMINOPICOLINATES AND THEIR USE AS HERBICIDES” (SYNGENTA CROP PROTECTION LLC, priority 2009, published 2012).

Experiments:
Format in all cases: in vivo
[1] = system: Alopecurus myosuroides (ALOMY); assay: Post-emergence biological efficacy, glasshouse pot test; conditions: evaluated after 13 days, 100=total damage, 0=no damage, read-out: Percentage damage caused to weed species, post-emergence, ALOMY; for pest or weed control at 1000 g/ha: 312 h, 1,000 g/ha
Summary of the method: (§1)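 Weeds grown 8 days in glasshouse pots (24/16 °C, 14 h light, 65% humidity) were sprayed with compound in acetone/water plus 0.5% Tween 20 at 1000 or 250 g/ha. Damage was scored 13 days later on a 0–100 scale (100 = total damage).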

Setaria faberi (SETFA) [2] = assay: as above; conditions: evaluated after 13 days, 100=total damage, 0=no damage, read-out: Percentage damage caused to weed species, post-emergence, SETFA; for pest or weed control at 1000 g/ha: 312 h, 1,000 g/ha
Summary of the method: as §1

[3] = system: Echinochloa crus-galli (ECHCG); assay: as above; conditions: evaluated after 13 days, 100=total damage, 0=no damage, read-out: Percentage damage caused to weed species, post-emergence, ECHCG; for pest or weed control at 1000 g/ha: 312 h, 1,000 g/ha
Summary of the method: as §1

[4] = system: Amaranthus retroflexus (AMARE); assay: as above; conditions: evaluated after 13 days, 100=total damage, 0=no damage, read-out: Percentage damage caused to weed species, post-emergence, AMARE; for pest or weed control at 1000 g/ha: 312 h, 1,000 g/ha
Summary of the method: as §1

Solanum nigrum (SOLNI) [5] = assay: as above; conditions: evaluated after 13 days, 100=total damage, 0=no damage, read-out: Percentage damage caused to weed species, post-emergence, SOLNI; for pest or weed control at 1000 g/ha: 312 h, 1,000 g/ha
Summary of the method: as §1

[6] = system: Ipomea hederaceae (IPOHE); assay: as above; conditions: Ipomoea hederacea, evaluated after 13 days, 100=total damage, 0=no damage, read-out: Percentage damage caused to weed species, post-emergence, IPOHE; for pest or weed control at 1000 g/ha: 312 h, 1,000 g/ha
Summary of the method: as §1

[7] = system: Alopecurus myosuroides (ALOMY); assay: Pre-emergence biological efficacy, glasshouse pot test; conditions: evaluated after 13 days, 100=total damage, 0=no damage, read-out: Percentage damage caused to weed species, pre-emergence, ALOMY; for pest or weed control at 1000 g/ha: 312 h, 1,000 g/ha
Summary of the method: (§2)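 Sow seeds in pots of standard soil; hold one day at 24/16 °C, 14 h light, 65% humidity. Spray compound at 1000 or 250 g/ha (acetone/water 50:50, 0.5% Tween 20). Grow on under the same conditions, watering twice daily, and score damage at day 13.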

Setaria faberi (SETFA) [8] = assay: as above; conditions: evaluated after 13 days, 100=total damage, 0=no damage, read-out: Percentage damage caused to weed species, pre-emergence, SETFA; for pest or weed control at 1000 g/ha: 312 h, 1,000 g/ha
Summary of the method: as §2

[9] = system: Echinochloa crus-galli (ECHCG); assay: as above; conditions: evaluated after 13 days, 100=total damage, 0=no damage, read-out: Percentage damage caused to weed species, pre-emergence, ECHCG; for pest or weed control at 1000 g/ha: 312 h, 1,000 g/ha
Summary of the method: as §2

[10] = system: Amaranthus retroflexus (AMARE); assay: as above; conditions: evaluated after 13 days, 100=total damage, 0=no damage, read-out: Percentage damage caused to weed species, pre-emergence, AMARE; for pest or weed control at 1000 g/ha: 312 h, 1,000 g/ha
Summary of the method: as §2

Solanum nigrum (SOLNI) [11] = assay: as above; conditions: evaluated after 13 days, 100=total damage, 0=no damage, read-out: Percentage damage caused to weed species, pre-emergence, SOLNI; for pest or weed control at 1000 g/ha: 312 h, 1,000 g/ha
Summary of the method: as §2

[12] = system: Ipomea hederaceae (IPOHE); assay: as above; conditions: Ipomoea hederacea, evaluated after 13 days, 100=total damage, 0=no damage, read-out: Percentage damage caused to weed species, pre-emergence, IPOHE; for pest or weed control at 1000 g/ha: 312 h, 1,000 g/ha
Summary of the method: as §2

Row | SMILES | pest or weed control at 1000 g/ha [1] [%] | pest or weed control at 1000 g/ha (Setaria faberi (SETFA) [2]) [%] | pest or weed control at 1000 g/ha [3] [%] | pest or weed control at 1000 g/ha [4] [%] | pest or weed control at 1000 g/ha (Solanum nigrum (SOLNI) [5]) [%] | pest or weed control at 1000 g/ha [6] [%] | pest or weed control at 1000 g/ha [7] [%] | pest or weed control at 1000 g/ha (Setaria faberi (SETFA) [8]) [%] | pest or weed control at 1000 g/ha [9] [%] | pest or weed control at 1000 g/ha [10] [%] | pest or weed control at 1000 g/ha (Solanum nigrum (SOLNI) [11]) [%] | pest or weed control at 1000 g/ha [12] [%] | other results
1 | COC(=O)c1nc(Cl)cc(NCc2ccccn2)c1Cl [Compound 31-2, 3,6-Dichloro-4-(pyridin-2-ylmethylamino)-pyridine-2-carboxylic acid methyl ester] | 50 | 80 | 20 | 100 | 100 | 80 | 70 | 80 | 60 | 100 | 100 | 100 | 
2 | C=Cc1c(NCc2ncccc2Cl)cc(Cl)nc1C(=O)OC [Compound 32-12, 6-Chloro-4-[(3-chloro-pyridin-2-ylmethyl)-amino]-3-ethenyl-pyridine-2-carboxylic acid methyl ester] | 50 | 60 | 40 | 100 | 90 | 50 | 70 | 80 | 50 | 100 | 100 | 70 | 
3 | COC(=O)c1nc(Cl)cc(NCc2ncccc2Cl)c1Br [Compound 32-17, 3-Bromo-6-chloro-4-[(3-chloro-pyridin-2-ylmethyl)-amino]-pyridine-2-carboxylic acid methyl ester] | 20 | 50 | 20 | 80 | 90 | 50 | 10 | 0 | 0 | 90 | 80 | 80 | 
4 | COC(=O)c1nc(Cl)c(F)c(NCc2ncccc2Cl)c1Br [Compound 32-29, 3-Bromo-6-chloro-4-[(3-chloro-pyridin-2-ylmethyl)-amino]-5-fluoro-pyridine-2-carboxylic acid methyl ester] |  |  |  |  |  |  |  |  |  |  |  |  | pest or weed control at 250 g/ha ([1]; 312 h, 250 g/ha): 20%; pest or weed control at 250 g/ha (Setaria faberi (SETFA) [2]; 312 h, 250 g/ha): 60%; pest or weed control at 250 g/ha ([3]; 312 h, 250 g/ha): 50%; pest or weed control at 250 g/ha ([4]; 312 h, 250 g/ha): 70%; pest or weed control at 250 g/ha (Solanum nigrum (SOLNI) [5]; 312 h, 250 g/ha): 80%; pest or weed control at 250 g/ha ([6]; 312 h, 250 g/ha): 60%; pest or weed control at 250 g/ha ([7]; 312 h, 250 g/ha): 10%; pest or weed control at 250 g/ha (Setaria faberi (SETFA) [8]; 312 h, 250 g/ha): 0%; pest or weed control at 250 g/ha ([9]; 312 h, 250 g/ha): 10%; pest or weed control at 250 g/ha ([10]; 312 h, 250 g/ha): 90%; pest or weed control at 250 g/ha (Solanum nigrum (SOLNI) [11]; 312 h, 250 g/ha): 80%; pest or weed control at 250 g/ha ([12]; 312 h, 250 g/ha): 70%
5 | C=Cc1c(C(=O)OC)nc(Cl)c(Cl)c1NCc1ncccc1Cl [Compound 32-39, 4-[(3-Chloro-pyridin-2-ylmethyl)-amino]-5,6-dichloro-3-ethenyl-pyridine-2-carboxylic acid methyl ester] | 10 | 50 | 20 | 100 | 90 | 40 | 0 | 0 | 0 | 100 | 60 | 50 | 
6 | COC(=O)c1nc(Cl)c(Cl)c(NCc2ncccc2Cl)c1Br [Compound 32-41, 3-Bromo-4-[(3-chloro-pyridin-2-ylmethyl)-amino]-5,6-dichloro-pyridine-2-carboxylic acid methyl ester] | 20 | 60 | 20 | 90 | 90 | 70 | 0 | 0 | 0 | 90 | 80 | 80 | 
7 | COC(=O)c1nc(Cl)cc(NCc2ncccc2C)c1Cl [Compound 33-2, 3,6-Dichloro-4-[(3-methyl-pyridin-2-ylmethyl)-amino] pyridine-2-carboxylic acid methyl ester] | 60 | 70 | 60 | 100 | 100 | 80 | 60 | 80 | 50 | 100 | 100 | 100 | 
8 | C=Cc1c(NCc2ncccc2C)cc(Cl)nc1C(=O)OC [Compound 33-12, 6-Chloro-3-ethenyl-4-[(3-methyl-pyridin-2-ylmethyl)-amino]-pyridine-2-carboxylic acid methyl ester] | 80 | 90 | 80 | 100 | 90 | 70 | 70 | 80 | 80 | 100 | 100 | 100 | 
9 | COC(=O)c1nc(Cl)cc(N(CCO)Cc2ccco2)c1Cl [Compound 66-2, 3,6-Dichloro-4-[N-(furan-2-ylmethyl)-N-(2-hydroxyethyl)-amino]-pyridine-2-carboxylic acid methyl ester] | 20 | 0 | 20 | 100 | 80 | 60 | 80 | 70 | 50 | 100 | 100 | 100 | 
